Target: T1, papain (Carica papaya, UniProt P00784)
T1 construct: purchased Sigma Chem. Co
T1 sequence (P00784 134-345): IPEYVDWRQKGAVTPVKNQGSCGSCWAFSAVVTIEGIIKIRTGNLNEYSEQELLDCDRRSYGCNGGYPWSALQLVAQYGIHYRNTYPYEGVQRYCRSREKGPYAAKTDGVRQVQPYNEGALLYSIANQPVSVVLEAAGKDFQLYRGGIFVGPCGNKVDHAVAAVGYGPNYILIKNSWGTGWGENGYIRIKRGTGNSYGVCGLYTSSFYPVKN
Assay: Papain inhibitory activity (milk casein digestion)
Assay type: biochemical
Conditions: papain 80 μg/ml 0.5 ml, cysteine, pH 6.8, 1% milk casein, 40° C., 10 minutes
Method: Papain inhibitory activity of the compounds of this invention was assayed as follows: To 0.5 ml of a solution of papain (80 μg/ml, Sigma Chem. Co., 2x cry.), were added 0.25 ml of 40 mM cysteine dissolved in 20 mM disodium ethylenediamine tetraacetic acid solution adjusted pH to 6.8 with sodium hydroxide and 0.25 ml of 33 mM phosphate buffer (pH 6.8) with or without inhibitor. After incubation at 40° C. for 15 minutes, the resulting mixture was added to 5 ml of 1% milk casein solution in the same buffer as described above, and further incubated at 40° C. for 10 minutes. Then the mixture was mixed with 5 ml of 0.44 M trichloroacetic acid solution and followed by filtration with a sheet of Toyo filter paper No. 4. The extinction of the filtrate was read at 280 nm. The percent inhibition was calculated from the formula, 100 x (B-A)/B; wherein B stands for the absorbance without inhibitor and A for the absorbance with inhibitor. The compound Nos. in Table 1 are as defined in Examples as described hereinafter.

Row | SMILES | ID50 (amount of inhibitor for 50% inhibition)
1 | O=C(OCC1CCC=CCCC1)[C@@H]1O[C@H]1C(=O)OCC1CCC=CCCC1 (relative stereo) [EP-73, di-4-cyclooctenemethyl epoxysuccinate] | 0.10 γ
2 | O=C(O)[C@@H]1O[C@H]1C(=O)OCC1CCC=CCCC1 (relative stereo) [EP-74, 4-cyclooctenemethyl potassium epoxysuccinate] | 0.07 γ
3 | O=C(O)[C@@H]1O[C@H]1C(=O)OCC1CCCO1 (relative stereo) [EP-76, tetrahydro-2-furanmethyl potassium epoxysuccinate] | 0.82 γ
4 | O=C(OCc1ccco1)[C@@H]1O[C@H]1C(=O)OCc1ccco1 (relative stereo) [EP-77, di-2-furanmethyl epoxysuccinate] | 0.77 γ
5 | O=C(O)[C@@H]1O[C@H]1C(=O)OCc1ccco1 (relative stereo) [EP-78, 2-furanmethyl potassium epoxysuccinate] | 0.54 γ
6 | O=C(O)[C@@H]1O[C@H]1C(=O)OCc1cccs1 (relative stereo) [EP-80, 2'-thenyl potassium epoxysuccinate] | 0.32 γ
7 | O=C(O)[C@@H]1O[C@H]1C(=O)OCc1cccc2ccccc12 (relative stereo) [EP-82, 1'-naphthylmethyl potassium epoxysuccinate] | 0.34 γ
8 | O=C(OCc1c(Cl)ccc2ccccc12)[C@@H]1O[C@H]1C(=O)OCc1c(Cl)ccc2ccccc12 (relative stereo) [EP-83, di-2'-chloro-1'-naphthylmethyl epoxysuccinate] | 1.55 γ
9 | O=C(O)[C@@H]1O[C@H]1C(=O)OCc1c(Cl)ccc2ccccc12 (relative stereo) [EP-84, 2'-chloro-1'-naphthylmethyl potassium epoxysuccinate] | 0.29 γ
10 | O=C(OCc1cccc2c(Br)cccc12)[C@@H]1O[C@H]1C(=O)OCc1cccc2c(Br)cccc12 (relative stereo) [EP-85, di-5'-bromo-1'-naphthylmethyl epoxysuccinate] | 1.56 γ
11 | O=C(O)[C@@H]1O[C@H]1C(=O)OCc1cccc2c(Br)cccc12 (relative stereo) [EP-86, 5'-bromo-1'-naphthylmethyl potassium epoxysuccinate] | 0.27 γ
12 | Cc1cccc2c(COC(=O)[C@@H]3O[C@H]3C(=O)OCc3ccc(C)c4c(C)cccc34)ccc(C)c12 (relative stereo) [EP-87, di-4',5'-dimethyl-1'-naphthylmethyl epoxysuccinate] | 1.58 γ
13 | Cc1cccc2c(COC(=O)[C@@H]3O[C@H]3C(=O)O)ccc(C)c12 (relative stereo) [EP-88, 4',5'-dimethyl-1'-naphthylmethyl potassium epoxysuccinate] | 0.32 γ
14 | Cc1ccc(COC(=O)[C@@H]2O[C@H]2C(=O)OCc2ccc(C)cc2)cc1 (relative stereo) [EP-89, di-p-methylbenzyl epoxysuccinate] | 1.39 γ
15 | Cc1ccc(COC(=O)[C@@H]2O[C@H]2C(=O)O)cc1 (relative stereo) [EP-90, p-methylbenzyl potassium epoxysuccinate] | 0.25 γ
16 | Cc1ccccc1COC(=O)[C@@H]1O[C@H]1C(=O)OCc1ccccc1C (relative stereo) [EP-91, di-o-methylbenzyl epoxysuccinate] | 0.35 γ
17 | Cc1ccccc1COC(=O)[C@@H]1O[C@H]1C(=O)O (relative stereo) [EP-92, o-methylbenzyl potassium epoxysuccinate] | 0.10 γ
18 | Cc1cc(C)cc(COC(=O)[C@@H]2O[C@H]2C(=O)OCc2cc(C)cc(C)c2)c1 (relative stereo) [EP-93, di-3',5'-dimethylbenzyl epoxysuccinate] | 4.31 γ
